In patent publication US4983328A, “N-(4-(3-aminopropyl)aminobutyl)-2-(ω-gua nidino-fatty-acid-amido(-2-substituted-ethanamide, salt thereof, and process for preparation thereof” (Bristol-Myers Company, priority 1981, dated 1991):
Values after ≈ are worked out from the molar mass of the structure shown.

Tests used:
[1] = system: mouse leukemia L-1210 cells; test: growth inhibitory activity to cancer cells in vitro (L-1210, 48 hours); assay type: cell-based; details: for inhibition at 1.25 µg/mL: L1210, 1.25 mcg/ml; for inhibition at 2.5 µg/mL: L1210, 2.5 mcg/ml; for inhibition at 5 µg/mL: L1210, 5 mcg/ml; for inhibition at 10 µg/mL: L1210, 10 mcg/ml; for inhibition at 20 µg/mL: L1210, 20 mcg/ml; for IC50: L1210, L-1210 cells, read-out: 50% inhibitory concentration; for inhibition at 40 µg/mL: L1210, 40 mcg/ml
Procedure: DBA/2 mice were implanted with 10^5 mouse leukemia L-1210 cells. The ascites collected asceptically from the mice after 4 days of feeding was washed three times with physiological saline to obtain L-1210 cells, which was then suspended in RPMI 1640 culture medium [G. E. Moore, Journal of the American Medical Association, Vol. 199, 519 (1967); H. J. Morton, In Vitro, Vol. 6, 89 (1970)] to which 10% fetal calf serum and 5 μM 2-mercaptoethanol had been added, and the resulting suspension was diluted to 5×10^4 L-1210 cells per 0.9 ml. A microplate carrying 0.9 ml of the cell suspension and 0.1 ml of the culture medium containing the sample being tested was kept in a carbon dioxide incubator at 37° C. After 48 hours of cultivation, the number of cells was measured by means of a Coulter Counter (Coulter Electronics, Inc., U.S.A.) to obtain the growth inhibition (%)=(1--T/C )×100=[1-(number of grown cells in medium containing sample/(number of grown cells in control medium)]×100. The 50% growth inhibitory concentration was calculated from the values of growth inhibition at varied sample concentrations. The results of tests on typical compounds of this invention for the growth inhibition of L-1210 cells were as shown in Table 6.

[2] = acute toxicity in mice (single intraperitoneal administration); details: mouse, in vivo, ip; mice, single i.p.; read-out: LD50 (median lethal dose on single administration)
Procedure: (§1) In Table 8 median lethal doses (LD50) of typical compounds of this invention are shown, measured in mice upon single intraperitoneal administration, as well as maximum tolerated doses in terms of total dose when a fixed amount per unit body weight was administered intraperitoneally to mice once a day for 6 consecutive days.
*Median lethal dose on single administration.

[3] = cumulative toxicity in mice (maximum tolerated dose, once a day for 6 consecutive days); details: mouse, in vivo, ip, i.p. once a day for 6 consecutive days, total dose, read-out: Maximum Tolerated Dose (total dose not causing death)
Procedure: as §1
**Maximum value of the total dose not causing death when a fixed amount
per unit body weight is administered to mice once a day for 6 consecutive

[4] = chemical stability: retention (%) after heating at 60° C. for 4 hours, by HPLC; assay type: physicochemical
Procedure: The chemical stability of the present compound was evaluated by determining the retention (%) after heating at 60° C. for 4 hours. In Table 5 are shown the test results together with those for spergualin as reference. The retention was determined by means of high performance liquid chromatography (HPLC). The column was packed with Nucleosil® 5C18. The solvent used for spergualin was a mixture (6:94) of acetonitrile -0.01M sodium pentanesulfonate +0.01M Na2 HPO4 (pH 3), while that for the compounds of this invention was a mixture of acetonitrile -0.005M sodium pentanesulfonate ±0.01M Na2 HPO4 (pH 3). The mixture ratio in the latter case was varied for each particular compound. For instance, a mixing ratio of 10:90 was used for Compound No. 9, while that of 7:93 for Compound No. 22.

[5] = system: mouse leukemia L-1210; test: therapeutic effect on implanted cancer in mice (L-1210, survival over 30 days); assay type: in vivo, mouse (BDF1); details: L1210, ip, 720 h, 6 days; for responders at 1.56 mg/kg / response vs control in vivo at 1.56 mg/kg: 1.56 mg/kg/day i.p.; for responders at 3.13 mg/kg / response vs control in vivo at 3.13 mg/kg: 3.13 mg/kg/day i.p.; for responders at 6.25 mg/kg / response vs control in vivo at 6.25 mg/kg: 6.25 mg/kg/day i.p.; for responders at 12.5 mg/kg / response vs control in vivo at 12.5 mg/kg: 12.5 mg/kg/day i.p.; for responders at 25 mg/kg / response vs control in vivo at 25 mg/kg: 25 mg/kg/day i.p.
Description: BDF1 strain male mice (5 weeks old) were each inoculated intraperitoneally with 10^5 mouse leukemia L-1210 cells and treated once a day by intraperitoneal injection with a test compound dissolved in physiological saline for 6 consecutive days beginning from the day of inoculation. The mice were then observed for 30 days to determine the rate of prolongation of survival period=100×T/C=100×(average survival days of treated group)/(average survival days of control group).

[6] = read-out: Growth inhibition (%), (1-T/C) × 100
[7] = read-out: Number of mice survived for 30 days (converted)
[8] = read-out: Prolongation of survival period (%), T/C × 100

| SMILES | inhibition at 1.25 µg/mL [1, 6] [%] | inhibition at 2.5 µg/mL [1, 6] [%] | inhibition at 5 µg/mL [1, 6] [%] | inhibition at 10 µg/mL [1, 6] [%] | inhibition at 20 µg/mL [1, 6] [%] | IC50 [1] [µg/mL] | LD50 [2] [mg/kg] | MTD [3] [mg/kg] | remaining at 4 h ([4]; pH 2, pH 2) [%] | remaining at 4 h ([4]; pH 4, pH 4) [%] | remaining at 4 h ([4]; pH 6, pH 6) [%] | remaining at 4 h ([4]; pH 8, pH 8) [%] | remaining at 4 h ([4]; pH 9, pH 9) [%] | inhibition at 40 µg/mL [1, 6] [%] | other results |
| --- | --- | --- | --- | --- | --- | --- | --- | --- | --- | --- | --- | --- | --- | --- | --- |
| N=C(N)NCCCCCC(=O)NC(O)C(=O)NCCCCNCCCN (stereo not shown) [Compound 3, N-[4-(3-aminopropyl)aminobutyl]-2-(6-guanidinohexanamido)-2-hydroxyethanamide] | 20.6 | 36.7 | 64.2 | 81.6 | 86.7 | 3.7 (≈ 9.91 µM) | > 50 | > 300 | – | – | – | – | – | – | – |
| CCCCOC(NC(=O)CCCCCCNC(=N)N)C(=O)NCCCCNCCCN (stereo not shown) [Compound 13, N-[4-(3-aminopropyl)aminobutyl]-2-(7-guanidinoheptanamido)-2-butoxyethanamide] | 17 | 21.3 | 24 | 33.2 | 65.7 | 14 (≈ 31.6 µM) | – | – | 72.4 | 100 | 100 | 100 | 98 | 72.5 | remaining at 4 h ([4]; pH 3, pH 3): 90.1%; remaining at 4 h ([4]; pH 10, pH 10): 96% |
| N=C(N)NCCCC[C@H](O)CC(=O)NC(O)C(=O)NCCCCNCCCN (single isomer, unassigned; (-)) [(-)-spergualin, reference compound] | – | – | – | – | – | – | – | – | 88.1 | 87.8 | 46.5 | 6.1 | 0 | – | remaining at 4 h ([4]; pH 3, pH 3): 88%; remaining at 4 h ([4]; pH 5, pH 5): 82.5%; remaining at 4 h ([4]; pH 7, pH 7): 12.6% |
| N=C(N)NCCCC(=O)NC(O)C(=O)NCCCCNCCCN (stereo not shown) [Compound 1, N-[4-(3-aminopropyl)aminobutyl]-2-(4-guanidinobutanamido)-2-hydroxyethanamide] | – | 52.2 | 89.3 | 101 | 100 | 2.4 (≈ 6.95 µM) | > 50 | > 300 | – | – | – | – | – | – | – |
| COC(NC(=O)C[C@@H](O)CCCCNC(=N)N)C(=O)NCCCCNCCCN (single isomer, unassigned; (-)) [22 (-), (-)-11-O-methylspergualin] | – | – | – | – | – | – | – | – | 79.7 | 100 | 100 | 100 | 97.6 | – | remaining at 4 h ([4]; pH 5, pH 5): 100%; remaining at 4 h ([4]; pH 7, pH 7): 100%; remaining at 4 h ([4]; pH 10, pH 10): 95.7%; responders at 1.56 mg/kg [5, 7]: 0%; response vs control in vivo at 1.56 mg/kg [5, 8]: 177%; responders at 3.13 mg/kg [5, 7]: 20%; response vs control in vivo at 3.13 mg/kg [5, 8]: > 290%; responders at 6.25 mg/kg [5, 7]: 80%; response vs control in vivo at 6.25 mg/kg [5, 8]: > 400%; responders at 12.5 mg/kg [5, 7]: 80%; response vs control in vivo at 12.5 mg/kg [5, 8]: > 408%; responders at 25 mg/kg [5, 7]: 100%; response vs control in vivo at 25 mg/kg [5, 8]: > 423% |
| COC(NC(=O)CCCNC(=N)N)C(=O)NCCCCNCCCN (stereo not shown) [Compound 7, N-[4-(3-aminopropyl)aminobutyl]-2-(4-guanidinobutanamido)-2-methoxyethanamide] | 38.7 | 80.7 | 98.5 | 99.8 | 99.9 | 1.5 (≈ 4.17 µM) | – | – | – | – | – | – | – | 99.3 | – |
| COC(NC(=O)C[C@@H](O)CCCCNC(=N)N)C(=O)NCCCCNCCCN (single isomer, unassigned; (+)) [Compound 22 (+), (+)-11-O-methylspergualin] | – | – | – | – | – | – | – | – | – | – | – | – | – | – | Stability [Retention (%)] ([4]; pH 2): 79.7%; Stability [Retention (%)] ([4]; pH 4): 100%; Stability [Retention (%)] ([4]; pH 5): 100%; Stability [Retention (%)] ([4]; pH 6): 100%; Stability [Retention (%)] ([4]; pH 7): 100%; Stability [Retention (%)] ([4]; pH 8): 100%; Stability [Retention (%)] ([4]; pH 9, 240 min): 100%; Stability [Retention (%)] ([4]; pH 10, 240 min): 95.6% |
| N=C(N)NCCCCC(=O)NC(O)C(=O)NCCCCNCCCN (stereo not shown) [Compound 2, N-[4-(3-aminopropyl)aminobutyl]-2-(5-guanidinopentanamido)-2-hydroxyethanamide] | 9.6 | 30.5 | 46.9 | 69.5 | 77.6 | 5 (≈ 13.9 µM) | > 50 | > 300 | – | – | – | – | – | 79.6 | inhibition at 80 µg/mL ([1]; L1210, 80 mcg/ml, read-out: Growth inhibition (%), (1-T/C) × 100): 79.6% |
| N=C(N)NCCCCCC(O)CC(=O)NC(O)C(=O)NCCCCNCCCN (stereo not shown) [Compound 20, N-[4-(3-aminopropyl)aminobutyl]-2-(8-guanidino-3-hydroxyoctanamido)-2-hydroxyethanamide] | 17.2 | 20.1 | 28.9 | 30.7 | 45.7 | 27 (≈ 64.7 µM) | > 50 | > 300 | – | – | – | – | – | – | – |
| COC(NC(=O)CCCCCCNC(=N)N)C(=O)NCCCCNCCCN (single isomer, unassigned; (-)) [Compound 9 (-), (-)-N-[4-(3-aminopropyl)aminobutyl]-2-(7-guanidinoheptanamido)-2-methoxyethanamide] | – | – | – | – | – | – | – | – | – | – | – | – | – | – | responders at 0.1 mg/kg ([5]; 0.10 mg/kg/day i.p., read-out: Number of mice survived for 30 days): 0%; response vs control in vivo at 0.1 mg/kg ([5]; 0.10 mg/kg/day i.p., read-out: Prolongation of survival period (%), T/C × 100): 110%; responders at 0.2 mg/kg ([5]; 0.20 mg/kg/day i.p., read-out: Number of mice survived for 30 days (converted)): 0%; response vs control in vivo at 0.2 mg/kg ([5]; 0.20 mg/kg/day i.p., read-out: Prolongation of survival period (%), T/C × 100): 127%; responders at 0.39 mg/kg ([5]; 0.39 mg/kg/day i.p., read-out: Number of mice survived for 30 days (converted)): 50%; response vs control in vivo at 0.39 mg/kg ([5]; 0.39 mg/kg/day i.p., read-out: Prolongation of survival period (%), T/C × 100): > 342%; responders at 0.78 mg/kg ([5]; 0.78 mg/kg/day i.p., read-out: Number of mice survived for 30 days (converted)): 50%; response vs control in vivo at 0.78 mg/kg ([5]; 0.78 mg/kg/day i.p., read-out: Prolongation of survival period (%), T/C × 100): > 370%; responders at 1.56 mg/kg [5, 7]: 50%; response vs control in vivo at 1.56 mg/kg [5, 8]: > 356%; responders at 3.13 mg/kg [5, 7]: 75%; response vs control in vivo at 3.13 mg/kg [5, 8]: > 411%; responders at 6.25 mg/kg [5, 7]: 25%; response vs control in vivo at 6.25 mg/kg [5, 8]: > 336%; responders at 12.5 mg/kg [5, 7]: 50%; response vs control in vivo at 12.5 mg/kg [5, 8]: > 390%; responders at 25 mg/kg [5, 7]: 0%; response vs control in vivo at 25 mg/kg [5, 8]: 0% |
